Laboratory results from publication PMC12144862, “Structural Basis of Sequential Enantioselective Epoxidation by a Flavin-Dependent Monooxygenase in Lasalocid A Biosynthesis” (Angewandte Chemie (International ed. in English), 2025).

Target: T1, Lsd18 (Streptomyces lasalocidi, UniProt B5M9L6)
T1 construct: recombinant Lsd18 with FAD; two molecules in the asymmetric unit
Assay: LC-MS epoxidation assay
Format: biochemical
Settings: forms mono- and bisepoxide

T1 sequence (B5M9L6 whole entry): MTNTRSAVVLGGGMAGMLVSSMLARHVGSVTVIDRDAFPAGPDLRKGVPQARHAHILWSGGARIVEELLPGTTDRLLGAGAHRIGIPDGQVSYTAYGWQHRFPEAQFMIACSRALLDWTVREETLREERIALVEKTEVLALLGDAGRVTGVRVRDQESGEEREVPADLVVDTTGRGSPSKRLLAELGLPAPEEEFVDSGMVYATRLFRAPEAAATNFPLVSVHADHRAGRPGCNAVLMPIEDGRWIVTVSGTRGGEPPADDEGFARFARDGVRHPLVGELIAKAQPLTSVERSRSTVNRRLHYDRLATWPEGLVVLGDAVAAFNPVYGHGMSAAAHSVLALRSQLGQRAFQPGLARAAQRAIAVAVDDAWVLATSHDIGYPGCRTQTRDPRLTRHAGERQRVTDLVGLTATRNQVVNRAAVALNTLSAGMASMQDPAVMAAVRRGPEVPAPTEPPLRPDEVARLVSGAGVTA

Compound: CC(=O)OC/C=C(\C)CC/C=C(\C)CCC=C(C)C [farnesyl acetate]
- LC-MS epoxidation assay: Lsd18 transforms farnesyl acetate, a natural sesquiterpene, into a bisepoxide
